Consider two molecules from patent US20150051210A1, “Tyrosine Kinase Inhibitor Combinations and their Use” (Novartis AG, priority 2012, published 2015).

One test relates to KYM-1 cells. Briefly: Combination assay (concentration matrix, resazurin, Loewe synergy) in KYM-1. Format: cell-based. Conditions: KYM-1, checkerboard layout, monolayer / non-adherent / semi-solid media. As for the experimental part: (§1) Combinatorial anti-proliferative effects of Cpd. B (“B) in the tables below) and BGJ398 (“C” in the tables below) were measured in KYM-1, MG-63, and Hs-683 cells on 96-well-plates using the concentration matrix depicted below:
(§2) Cells were grown under three different conditions (see FIG. 7): Experiments labeled “monolayer” were conducted on regular tissue culture plates, allowing cells to adhere and eventually form a monolayer. Cells were seeded on 3 plates per experiment (triplicates) in standard growth media as described above at a density of 5000 per well. Six to eight wells on a separate plate were seeded to quantify the amount of viable cells at the point of compound addition. […] At the same time, viable cells on the separate plate mentioned above were quantified using a resazurin sodium salt dye reduction readout. […] Quantification of Synergy was done using the methods described in G. R. Zimmermann et al., Drug Discovery Today, Vol. 12, No. ½, 2007, pages 34 to 42, and especially J. Lehár et al., Nature Biotechnology Vol. 27, No. 7, 2009, pages 659 to 666, in short by iteratively calculating the Loewe additive response ILoewe (X, Y) at each dose matrix point from the single-agent response curves, and then summing the differences between ILoewe and the experimental data. […]

In a further test the test system is MG-63 cells. Kind of test: Combination assay (concentration matrix, resazurin, Loewe synergy) in MG-63. Format: cell-based. Conditions: MG-63, semi-solid media. The procedure:
as §1, §2

As to `CCN1CCN(c2ccc(Nc3cc(N(C)C(=O)Nc4c(Cl)c(OC)cc(OC)c4Cl)ncn3)cc2)CC1` [BGJ398, 3-(2,6-dichloro-3,5-dimethoxy-phenyl)-1-{6-[4-(4-ethylpiperazin-1-yl)-phenylamino]-pyrimidin-4-yl}-1-methyl-urea], in the test with KYM-1 cells, the growth suppression result is given as “partial growth suppression”. In addition, the growth inhibition result in the test on MG-63 cells is listed as “strong growth inhibition”.
With `CNC(=O)c1ccc(-c2cnc3ncc(Cc4ccc5ncccc5c4)n3n2)cc1F` [Cpd. B, 2-fluoro-N-methyl-4-[(7-quinolin-6-yl-methyl)-imidazo[1,2-b]triazin-2-yl]benzamide], the growth suppression entry with KYM-1 cells was “no effect”.
